# Results from publication PMC9506414, “Novel 2,6,9-Trisubstituted Purines as Potent CDK Inhibitors Alleviating Trastuzumab-Resistance of HER2-Positive Breast Cancers” (Pharmaceuticals, 2022).
# Read-outs that look alike come from different tables or passages of the source.
# Key:
# HCC1954 cells = experiment: Antiproliferation assay (Cell-titer Glo, 72 h); assay type: cell-based; details: Homo sapiens, 72 h, means and standard deviations from three independent assays, read-out: HCC1954 (GI50/μM)
# Procedure: (§1) Breast-cancer cell lines (SK-Br3, HCC-1954) were purchased from Korea Cell Line Bank (Seoul, Korea) and were cultured in RPMI medium supplemented with 10% FBS and penicillin/streptomycin (Welgene, Seoul, Korea). All cell lines were maintained at 37 °C in a cell incubator in the presence of 5% CO2.
# (§2) Breast-cancer cells in culture media (100 μL volume/well, 5000 SK-Br3 cells/well, 1000 HCC-1954 cells/well) were seeded in tissue culture-treated 96-well plates, and incubated at a cell incubator for 24 h. Serially diluted compounds (3-fold, 10 point from 10 mM, duplicated) were pre-plated and 500 nL of compound solutions were pin-transferred to the cells in the assay plates using pintool system (JANUS liquid handler, PerkinElmer, Waltham, MA, USA) and incubated at a cell incubator for 72 h. Cell-titer Glo^TM reagent (50 μL, Promega Corp., Madison, WI, USA) was added to each well, and the luminescence signal was read using an Envision^TM plate reader (PerkinElmer, Waltham, MA, USA). The titration curve fitting and IC50 values were generated using Prism 7.0 s/w (GraphPad, San Diego, CA, USA).
# SK-Br3 cells = experiment: Antiproliferation assay (Cell-titer Glo, 72 h); assay type: cell-based; details: Homo sapiens, SK-BR-3; 72 h; means and standard deviations from three independent assays; read-out: SK-Br3 (GI50/μM)
# Procedure: as §1, §2
# CDK12/CyclinK = CDK12/CyclinK (Homo sapiens, UniProt Q9NYV4); experiment: In vitro CDK12/cyclinK kinase assay; assay type: biochemical; parameters: purchased Reaction Biology Corp. (CRO that ran the assay)
# CDK12/CyclinK, sequence (Q9NYV4 whole entry): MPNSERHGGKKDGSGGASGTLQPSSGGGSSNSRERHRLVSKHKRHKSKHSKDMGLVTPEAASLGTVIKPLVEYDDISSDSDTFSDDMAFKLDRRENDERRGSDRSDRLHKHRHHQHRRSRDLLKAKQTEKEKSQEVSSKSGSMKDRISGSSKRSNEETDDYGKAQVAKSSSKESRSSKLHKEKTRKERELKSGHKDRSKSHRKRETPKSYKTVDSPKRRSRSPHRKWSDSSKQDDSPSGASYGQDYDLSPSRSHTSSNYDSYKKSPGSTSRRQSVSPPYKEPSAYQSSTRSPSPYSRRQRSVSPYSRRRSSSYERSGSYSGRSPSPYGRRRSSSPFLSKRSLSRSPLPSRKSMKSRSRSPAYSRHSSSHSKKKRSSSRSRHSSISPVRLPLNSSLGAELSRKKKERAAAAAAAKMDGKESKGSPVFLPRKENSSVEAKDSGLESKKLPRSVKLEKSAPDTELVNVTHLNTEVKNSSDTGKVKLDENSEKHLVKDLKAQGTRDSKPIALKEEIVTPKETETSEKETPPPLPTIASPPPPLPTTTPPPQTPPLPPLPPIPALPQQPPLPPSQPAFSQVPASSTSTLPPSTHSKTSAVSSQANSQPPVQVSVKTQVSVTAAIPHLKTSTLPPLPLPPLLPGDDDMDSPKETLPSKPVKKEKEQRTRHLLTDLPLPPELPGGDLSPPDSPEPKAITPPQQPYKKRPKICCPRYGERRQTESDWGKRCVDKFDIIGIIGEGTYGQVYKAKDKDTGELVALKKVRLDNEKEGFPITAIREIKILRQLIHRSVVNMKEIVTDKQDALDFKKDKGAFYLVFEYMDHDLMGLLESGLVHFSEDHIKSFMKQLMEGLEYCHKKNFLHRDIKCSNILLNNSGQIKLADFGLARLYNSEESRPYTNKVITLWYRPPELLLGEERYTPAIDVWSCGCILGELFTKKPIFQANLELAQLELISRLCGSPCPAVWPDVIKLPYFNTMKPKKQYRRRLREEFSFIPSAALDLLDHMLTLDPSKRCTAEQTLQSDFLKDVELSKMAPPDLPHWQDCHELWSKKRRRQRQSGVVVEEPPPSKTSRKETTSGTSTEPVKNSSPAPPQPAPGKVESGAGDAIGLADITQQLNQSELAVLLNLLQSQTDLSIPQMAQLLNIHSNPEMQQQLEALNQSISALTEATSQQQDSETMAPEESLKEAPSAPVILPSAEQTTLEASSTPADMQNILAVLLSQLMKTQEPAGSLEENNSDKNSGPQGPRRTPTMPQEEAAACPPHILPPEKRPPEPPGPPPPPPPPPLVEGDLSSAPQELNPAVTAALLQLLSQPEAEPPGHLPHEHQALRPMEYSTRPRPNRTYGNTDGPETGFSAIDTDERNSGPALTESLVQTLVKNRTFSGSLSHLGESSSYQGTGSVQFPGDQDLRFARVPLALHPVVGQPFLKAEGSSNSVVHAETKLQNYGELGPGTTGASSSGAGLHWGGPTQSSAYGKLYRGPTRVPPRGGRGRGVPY
# CDK12/CyclinK, sequence (O75909 whole entry partner): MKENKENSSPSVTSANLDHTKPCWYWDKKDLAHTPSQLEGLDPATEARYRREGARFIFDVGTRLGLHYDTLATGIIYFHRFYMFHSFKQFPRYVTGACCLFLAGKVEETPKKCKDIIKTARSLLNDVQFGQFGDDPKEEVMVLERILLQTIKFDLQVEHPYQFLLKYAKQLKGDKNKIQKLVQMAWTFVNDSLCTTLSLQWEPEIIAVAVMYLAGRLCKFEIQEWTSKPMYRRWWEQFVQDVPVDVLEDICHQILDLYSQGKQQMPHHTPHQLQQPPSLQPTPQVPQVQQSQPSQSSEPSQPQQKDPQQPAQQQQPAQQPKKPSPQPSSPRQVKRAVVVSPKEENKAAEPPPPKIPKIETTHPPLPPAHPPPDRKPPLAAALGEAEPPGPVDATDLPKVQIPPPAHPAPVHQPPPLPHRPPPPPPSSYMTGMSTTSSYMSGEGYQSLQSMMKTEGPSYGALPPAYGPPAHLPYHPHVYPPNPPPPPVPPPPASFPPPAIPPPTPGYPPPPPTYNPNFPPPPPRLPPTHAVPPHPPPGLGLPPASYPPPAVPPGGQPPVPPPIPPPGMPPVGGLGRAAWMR
# Procedure: In vitro CDK12/cyclinK assays for all compounds and in vitro kinome-wide inhibition profiling of 30d at 10 μM were performed by a CRO company (Reaction Biology Corp., San Diego, CA, USA).
# [1] = In vitro liver microsomal stability; assay type: in vitro ADME; details: liver microsomes, pH 7.4, 30 m at 37 °C with NADPH regeneration system
# Procedure: Each compound (final 1 μM, duplicated) was added to each 0.1 M PBS solution (pH 7.4) containing liver microsome of three different species (human, dog, mouse). After a brief (5 m) incubation at 37 °C, the NADPH regeneration system (Promega Corp., Madison, WI, USA) was added, then the mixture was incubated at 37 °C for 30 m. The reaction was terminated by adding acetonitrile containing an internal standard (chlorpropamide), then the mixture was centrifuged at 15,000 rpm, 4 °C for 5 m. The supernatant solution was injected to LC/MS/MS system (TSQ Vantage Triple-Stage Quadrupole Mass Spectrometer, ThermoFisher Scientific, Waltham, MA, USA). The remaining substrates were analyzed with Xcalibur 4.4 s/w using an MRM (multiple reaction monitoring) quantitation mode.
# CYP1A2 = biological target: T1, CYP1A2 (Homo sapiens, UniProt P05177); experiment: CYP inhibition; assay type: in vitro ADME
# T1 sequence (P05177 1-516): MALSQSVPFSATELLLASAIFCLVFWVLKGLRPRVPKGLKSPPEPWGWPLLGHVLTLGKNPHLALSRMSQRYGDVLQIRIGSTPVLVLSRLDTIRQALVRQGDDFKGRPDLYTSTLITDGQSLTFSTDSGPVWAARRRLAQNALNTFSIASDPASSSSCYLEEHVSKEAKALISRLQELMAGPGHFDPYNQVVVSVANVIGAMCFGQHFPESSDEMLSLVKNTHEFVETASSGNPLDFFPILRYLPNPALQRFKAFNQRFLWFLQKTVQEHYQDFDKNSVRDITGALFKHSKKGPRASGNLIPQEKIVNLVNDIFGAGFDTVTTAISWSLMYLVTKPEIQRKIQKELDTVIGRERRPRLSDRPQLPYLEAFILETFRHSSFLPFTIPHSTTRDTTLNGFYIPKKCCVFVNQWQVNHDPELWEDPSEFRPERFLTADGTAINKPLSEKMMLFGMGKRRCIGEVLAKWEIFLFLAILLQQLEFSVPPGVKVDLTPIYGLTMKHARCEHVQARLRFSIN
# Procedure: Table 6 In vitro liver metabolic stability and activity against CYPs of potent analogues. | column: CYP % Activity at 10 μM / 1A2
# CYP2C9 = CYP2C9 (Homo sapiens, UniProt P11712); experiment: CYP inhibition; assay type: in vitro ADME
# CYP2C9, sequence (P11712 whole entry): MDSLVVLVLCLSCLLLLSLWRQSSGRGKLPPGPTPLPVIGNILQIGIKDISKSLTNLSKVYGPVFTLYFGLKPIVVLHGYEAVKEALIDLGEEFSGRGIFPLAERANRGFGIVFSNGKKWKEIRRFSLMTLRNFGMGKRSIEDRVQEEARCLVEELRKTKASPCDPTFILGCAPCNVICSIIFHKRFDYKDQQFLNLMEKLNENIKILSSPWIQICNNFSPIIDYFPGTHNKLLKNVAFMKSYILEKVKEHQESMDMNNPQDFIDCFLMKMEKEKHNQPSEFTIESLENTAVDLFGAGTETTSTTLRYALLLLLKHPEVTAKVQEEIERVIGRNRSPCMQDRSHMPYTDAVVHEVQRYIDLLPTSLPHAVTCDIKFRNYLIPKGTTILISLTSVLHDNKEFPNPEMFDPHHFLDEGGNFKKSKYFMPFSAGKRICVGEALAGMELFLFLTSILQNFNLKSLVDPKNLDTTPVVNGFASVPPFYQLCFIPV
# Procedure: Table 6 In vitro liver metabolic stability and activity against CYPs of potent analogues. | column: CYP % Activity at 10 μM / 2C9
# CYP2C19 = CYP2C19 (Homo sapiens, UniProt P33261); experiment: CYP inhibition; assay type: in vitro ADME
# CYP2C19, sequence (P33261 whole entry): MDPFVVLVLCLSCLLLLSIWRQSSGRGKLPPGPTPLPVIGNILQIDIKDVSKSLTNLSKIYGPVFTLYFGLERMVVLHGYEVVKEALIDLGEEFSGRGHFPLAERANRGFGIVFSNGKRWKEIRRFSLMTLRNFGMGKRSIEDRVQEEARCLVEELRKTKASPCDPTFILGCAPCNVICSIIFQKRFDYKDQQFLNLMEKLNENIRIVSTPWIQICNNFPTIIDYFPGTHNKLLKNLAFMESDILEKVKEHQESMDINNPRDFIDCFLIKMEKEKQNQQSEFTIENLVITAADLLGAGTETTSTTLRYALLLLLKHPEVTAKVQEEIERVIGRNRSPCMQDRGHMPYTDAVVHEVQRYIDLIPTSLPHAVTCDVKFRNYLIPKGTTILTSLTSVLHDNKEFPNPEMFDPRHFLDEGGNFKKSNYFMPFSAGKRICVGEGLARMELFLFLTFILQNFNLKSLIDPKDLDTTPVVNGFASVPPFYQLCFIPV
# Procedure: Table 6 In vitro liver metabolic stability and activity against CYPs of potent analogues. | column: CYP % Activity at 10 μM / 2C19
# CYP2D6 = CYP2D6 (Homo sapiens, UniProt P10635); experiment: CYP inhibition; assay type: in vitro ADME
# CYP2D6, sequence (P10635 whole entry): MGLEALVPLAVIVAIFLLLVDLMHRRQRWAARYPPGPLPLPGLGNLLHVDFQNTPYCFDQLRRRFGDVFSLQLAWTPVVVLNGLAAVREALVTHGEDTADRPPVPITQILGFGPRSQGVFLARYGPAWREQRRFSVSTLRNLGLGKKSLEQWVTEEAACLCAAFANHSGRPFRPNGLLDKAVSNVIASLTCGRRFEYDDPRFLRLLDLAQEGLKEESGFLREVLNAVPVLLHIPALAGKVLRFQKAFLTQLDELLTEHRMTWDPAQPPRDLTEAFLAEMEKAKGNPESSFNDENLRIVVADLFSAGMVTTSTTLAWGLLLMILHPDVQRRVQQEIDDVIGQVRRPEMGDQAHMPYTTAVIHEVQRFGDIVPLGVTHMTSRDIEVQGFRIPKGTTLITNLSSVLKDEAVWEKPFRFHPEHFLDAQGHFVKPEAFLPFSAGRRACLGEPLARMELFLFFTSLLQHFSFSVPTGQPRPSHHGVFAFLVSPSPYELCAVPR
# Procedure: Table 6 In vitro liver metabolic stability and activity against CYPs of potent analogues. | column: CYP % Activity at 10 μM / 2D6
# CYP3A4 = CYP3A4 (Homo sapiens, UniProt P08684); experiment: CYP inhibition; assay type: in vitro ADME
# CYP3A4, sequence (P08684 whole entry): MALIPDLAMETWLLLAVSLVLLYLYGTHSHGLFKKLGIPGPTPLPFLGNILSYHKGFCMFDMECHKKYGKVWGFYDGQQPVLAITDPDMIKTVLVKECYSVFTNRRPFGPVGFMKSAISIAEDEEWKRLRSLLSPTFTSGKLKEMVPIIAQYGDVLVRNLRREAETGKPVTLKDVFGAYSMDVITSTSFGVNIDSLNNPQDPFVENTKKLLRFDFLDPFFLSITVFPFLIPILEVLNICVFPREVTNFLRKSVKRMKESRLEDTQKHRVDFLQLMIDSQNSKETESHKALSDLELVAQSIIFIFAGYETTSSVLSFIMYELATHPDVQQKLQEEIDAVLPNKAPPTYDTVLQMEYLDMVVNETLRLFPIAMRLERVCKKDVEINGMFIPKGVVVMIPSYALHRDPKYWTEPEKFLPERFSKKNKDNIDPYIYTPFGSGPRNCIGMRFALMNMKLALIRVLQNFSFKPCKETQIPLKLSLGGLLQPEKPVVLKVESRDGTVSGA
# Procedure: Table 6 In vitro liver metabolic stability and activity against CYPs of potent analogues. | column: CYP % Activity at 10 μM / 3A4
# [2] = Table 5, means and standard deviations from three independent assays, read-out: CDK12/CyclinK (IC50/μM)
SMILES,GI50 (HCC1954 cells),GI50 (SK-Br3 cells),"IC50 (CDK12/CyclinK; Tables 1-4, read-out: CDK12/CyclinK (IC50/μM))","remaining at 30 min, 1 μM ([1]; dog)","remaining at 30 min, 1 μM ([1]; human)","remaining at 30 min, 1 μM ([1]; mouse)",CYP % Activity at 10 μM 1A2 (CYP1A2),CYP % Activity at 10 μM 2C9 (CYP2C9),CYP % Activity at 10 μM 2C19 (CYP2C19),CYP % Activity at 10 μM 2D6 (CYP2D6),CYP % Activity at 10 μM 3A4 (CYP3A4),IC50 (CDK12/CyclinK; [2]),IC50 (CDK12/CyclinK; read-out: CDK12/cyclinK IC50)
"c1cncc(-c2ccc(CNc3nc(-c4cccnc4)nc4c3ncn4C3CCCC3)cn2)c1 [Compound 28b, N-([2,3′-Bipyridin]-5-ylmethyl)-9-cyclopentyl-2-(pyridin-3-yl)-9H-purin-6-amine]",2.14 ± 0.176 µM,2.6 ± 0.31 µM,0.293 µM,,,,,,,,,,
"CCn1cnc2c(NCc3ccc(-c4ccnc(C)c4)nc3)nc(-c3ccc(N)nc3)nc21 [Compound 30a, 2-(6-Aminopyridin-3-yl)-9-ethyl-N-((2′-methyl-[2,4′-bipyridin]-5-yl)methyl)-9H-purin-6-amine]",0.104 ± 0.003 µM,0.136 ± 0.016 µM,,45.1%,32.2%,35.3%,59.3%,73.0%,76.8%,89.6%,38.9%,0.029 ± 0.015 µM,< 0.03 µM
"CCn1cnc2c(NCc3ccc(-c4ccnc(C)c4)nc3)nc(-c3cnc(N)nc3)nc21 [Compound 30b, 2-(2-Aminopyrimidin-5-yl)-9-ethyl-N-((2′-methyl-[2,4′-bipyridin]-5-yl)methyl)-9H-purin-6-amine]",0.08 ± 0.007 µM,0.09 ± 0.008 µM,,53.6%,40.6%,45%,74.9%,82.9%,75.4%,85.7%,72.4%,0.028 ± 0.008 µM,< 0.03 µM
"CCn1cnc2c(NCc3ccc(-c4ccnc(C)c4)nc3)nc(-c3cncnc3)nc21 [Compound 30c, 9-Ethyl-N-((2′-methyl-[2,4′-bipyridin]-5-yl)methyl)-2-(pyrimidin-5-yl)-9H-purin-6-amine]",0.157 ± 0.022 µM,0.189 ± 0.057 µM,,79.5%,27.3%,34%,68.6%,67.5%,73.9%,88.8%,31.8%,0.064 ± 0.012 µM,
"CN(C)C/C=C/C(=O)Nc1ccc(C(=O)N2CCC[C@@H](Nc3ncc(Cl)c(-c4c[nH]c5ccccc45)n3)C2)cc1 [THZ531, reference compound]",0.195 ± 0.05 µM,0.03 ± 0.006 µM,,,,,,,,,,0.051 ± 0.007 µM,
